These are literature values, as cited in paper PMC9851200, “Multiparameter phenotypic screening for endogenous TFEB and TFE3 translocation identifies novel chemical series modulating lysosome function” (Autophagy, 2022).

Common to all, as to parameters: method as in original PKIS2 published data
The target in data set [1] is kinases (KINOMEscan panel) (Homo sapiens, UniProt P21860). Conditions: ERBB3; Published KINOMEscan; ref original PKIS2 published data; cited from earlier work.
The target of data set [2] is kinases (KINOMEscan panel) (Homo sapiens, UniProt P35916). The following applies: FLT4; Published KINOMEscan; ref original PKIS2 published data; cited from earlier work.
kinases (KINOMEscan panel) (Homo sapiens, UniProt P35916), sequence (P35916 25-1363): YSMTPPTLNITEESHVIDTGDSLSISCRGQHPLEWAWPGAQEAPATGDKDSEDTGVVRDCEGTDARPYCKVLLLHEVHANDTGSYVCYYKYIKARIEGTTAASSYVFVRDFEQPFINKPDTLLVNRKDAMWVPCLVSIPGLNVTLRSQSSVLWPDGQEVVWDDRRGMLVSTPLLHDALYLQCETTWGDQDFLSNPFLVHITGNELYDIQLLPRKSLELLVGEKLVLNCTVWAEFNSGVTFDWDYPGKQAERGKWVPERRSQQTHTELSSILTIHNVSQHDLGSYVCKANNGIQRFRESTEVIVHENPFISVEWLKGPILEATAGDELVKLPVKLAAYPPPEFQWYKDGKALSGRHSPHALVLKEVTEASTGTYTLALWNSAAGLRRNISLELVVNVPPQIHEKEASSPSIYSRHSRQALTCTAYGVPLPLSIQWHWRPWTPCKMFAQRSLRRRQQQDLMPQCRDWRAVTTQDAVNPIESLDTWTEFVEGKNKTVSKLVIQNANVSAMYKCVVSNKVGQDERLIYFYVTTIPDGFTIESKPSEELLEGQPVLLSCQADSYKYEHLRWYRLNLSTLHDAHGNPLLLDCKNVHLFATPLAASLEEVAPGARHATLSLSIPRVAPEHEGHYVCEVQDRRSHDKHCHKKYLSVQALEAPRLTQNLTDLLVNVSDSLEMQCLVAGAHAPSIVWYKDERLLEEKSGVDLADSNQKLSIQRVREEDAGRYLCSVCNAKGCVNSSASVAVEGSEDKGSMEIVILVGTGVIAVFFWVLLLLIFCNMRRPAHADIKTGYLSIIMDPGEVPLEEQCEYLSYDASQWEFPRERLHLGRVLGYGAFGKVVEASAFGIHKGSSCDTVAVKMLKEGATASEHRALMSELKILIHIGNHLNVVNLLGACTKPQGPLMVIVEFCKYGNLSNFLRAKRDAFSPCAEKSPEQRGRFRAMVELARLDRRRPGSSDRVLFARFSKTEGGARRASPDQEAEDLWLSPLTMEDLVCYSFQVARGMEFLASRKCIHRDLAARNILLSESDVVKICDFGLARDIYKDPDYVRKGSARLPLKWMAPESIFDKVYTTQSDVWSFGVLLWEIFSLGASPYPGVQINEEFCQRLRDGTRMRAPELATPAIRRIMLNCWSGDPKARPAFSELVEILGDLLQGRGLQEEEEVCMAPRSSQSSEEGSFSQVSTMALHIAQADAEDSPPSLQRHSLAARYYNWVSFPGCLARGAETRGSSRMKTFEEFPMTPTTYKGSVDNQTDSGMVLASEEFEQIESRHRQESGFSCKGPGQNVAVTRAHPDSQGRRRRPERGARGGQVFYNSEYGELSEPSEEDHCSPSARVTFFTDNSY
Data set [3] concerns the target T1, kinases (KINOMEscan panel) (Homo sapiens, UniProt P41743).
T1 sequence (P41743 1-596): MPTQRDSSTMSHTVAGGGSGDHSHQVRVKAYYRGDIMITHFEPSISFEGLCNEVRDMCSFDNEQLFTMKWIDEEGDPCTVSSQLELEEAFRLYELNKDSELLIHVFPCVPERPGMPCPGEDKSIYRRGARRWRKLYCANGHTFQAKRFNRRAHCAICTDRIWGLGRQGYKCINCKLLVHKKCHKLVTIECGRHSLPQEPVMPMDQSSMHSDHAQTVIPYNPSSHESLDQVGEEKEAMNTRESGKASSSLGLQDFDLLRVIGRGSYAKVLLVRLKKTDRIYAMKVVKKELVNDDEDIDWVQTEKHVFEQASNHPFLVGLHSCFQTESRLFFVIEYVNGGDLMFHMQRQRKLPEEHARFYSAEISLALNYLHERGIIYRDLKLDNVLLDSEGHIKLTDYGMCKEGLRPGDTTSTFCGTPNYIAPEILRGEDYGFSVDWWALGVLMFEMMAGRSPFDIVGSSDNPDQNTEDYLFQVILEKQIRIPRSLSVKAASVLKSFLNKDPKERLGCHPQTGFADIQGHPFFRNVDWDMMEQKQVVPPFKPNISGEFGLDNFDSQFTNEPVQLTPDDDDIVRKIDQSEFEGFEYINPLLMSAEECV
The following applies: PRKCI; Published KINOMEscan; ref original PKIS2 published data; cited from earlier work.

In data set [4] the target is kinases (KINOMEscan panel) (Homo sapiens, UniProt P51957). The following applies: kinase NEK4; Published KINOMEscan; ref original PKIS2 published data; cited from earlier work.
Data set [5] addresses kinases (KINOMEscan panel) (Homo sapiens, UniProt P80192). Conditions: Published KINOMEscan; ref original PKIS2 published data; cited from earlier work.
Data set [6] has as its target kinases (KINOMEscan panel) (Homo sapiens, UniProt Q15746). The following applies: kinase MYLK; Published KINOMEscan; ref original PKIS2 published data; cited from earlier work.
Data set [7] has as its target T2, kinases (KINOMEscan panel) (Homo sapiens, UniProt Q8NFD2).
T2 sequence (Q8NFD2 1-765): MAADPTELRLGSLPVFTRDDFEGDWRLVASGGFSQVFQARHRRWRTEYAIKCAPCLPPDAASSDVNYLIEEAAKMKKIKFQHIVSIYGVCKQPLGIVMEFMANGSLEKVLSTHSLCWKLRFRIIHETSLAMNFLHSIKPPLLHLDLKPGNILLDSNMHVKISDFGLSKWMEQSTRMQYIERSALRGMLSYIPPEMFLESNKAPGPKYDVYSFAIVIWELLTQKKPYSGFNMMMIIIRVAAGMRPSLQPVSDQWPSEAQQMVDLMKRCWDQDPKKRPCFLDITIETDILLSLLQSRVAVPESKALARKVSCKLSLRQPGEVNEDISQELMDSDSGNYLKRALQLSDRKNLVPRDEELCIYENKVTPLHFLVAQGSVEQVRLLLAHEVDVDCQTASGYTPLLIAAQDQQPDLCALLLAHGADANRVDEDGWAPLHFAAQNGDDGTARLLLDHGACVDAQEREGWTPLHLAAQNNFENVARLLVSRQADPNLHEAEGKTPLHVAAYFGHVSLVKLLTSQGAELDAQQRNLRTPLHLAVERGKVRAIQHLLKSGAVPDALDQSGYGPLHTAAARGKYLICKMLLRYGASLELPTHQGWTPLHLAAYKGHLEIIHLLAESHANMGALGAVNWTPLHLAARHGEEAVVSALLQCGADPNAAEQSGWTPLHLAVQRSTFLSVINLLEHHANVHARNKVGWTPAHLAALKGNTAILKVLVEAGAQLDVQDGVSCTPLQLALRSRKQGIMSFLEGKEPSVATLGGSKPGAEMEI
The following applies: ANKK1; Published KINOMEscan; ref original PKIS2 published data; cited from earlier work.

Data set [8] deals with T3, kinases (KINOMEscan panel) (Homo sapiens, UniProt Q9BRS2).
T3 sequence (Q9BRS2 1-568): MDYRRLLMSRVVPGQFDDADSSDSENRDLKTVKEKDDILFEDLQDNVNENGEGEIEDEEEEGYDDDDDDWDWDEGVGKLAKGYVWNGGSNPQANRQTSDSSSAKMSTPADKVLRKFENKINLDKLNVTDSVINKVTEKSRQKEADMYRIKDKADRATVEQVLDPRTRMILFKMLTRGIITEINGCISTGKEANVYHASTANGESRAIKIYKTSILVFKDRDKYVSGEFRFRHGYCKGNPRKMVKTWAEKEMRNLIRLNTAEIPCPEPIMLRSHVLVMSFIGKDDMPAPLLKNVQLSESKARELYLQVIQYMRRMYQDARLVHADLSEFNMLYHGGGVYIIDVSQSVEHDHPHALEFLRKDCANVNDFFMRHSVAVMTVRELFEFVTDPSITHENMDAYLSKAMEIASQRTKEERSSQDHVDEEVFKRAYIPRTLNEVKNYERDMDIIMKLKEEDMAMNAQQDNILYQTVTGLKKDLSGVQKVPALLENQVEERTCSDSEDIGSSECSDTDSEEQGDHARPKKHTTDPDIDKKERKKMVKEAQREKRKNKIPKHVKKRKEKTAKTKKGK
Conditions: RIOK1; Published KINOMEscan; ref original PKIS2 published data; cited from earlier work.

SMILES strings stand for the structures.

kinases (KINOMEscan panel) (Homo sapiens, UniProt P80192), sequence (P80192 whole entry): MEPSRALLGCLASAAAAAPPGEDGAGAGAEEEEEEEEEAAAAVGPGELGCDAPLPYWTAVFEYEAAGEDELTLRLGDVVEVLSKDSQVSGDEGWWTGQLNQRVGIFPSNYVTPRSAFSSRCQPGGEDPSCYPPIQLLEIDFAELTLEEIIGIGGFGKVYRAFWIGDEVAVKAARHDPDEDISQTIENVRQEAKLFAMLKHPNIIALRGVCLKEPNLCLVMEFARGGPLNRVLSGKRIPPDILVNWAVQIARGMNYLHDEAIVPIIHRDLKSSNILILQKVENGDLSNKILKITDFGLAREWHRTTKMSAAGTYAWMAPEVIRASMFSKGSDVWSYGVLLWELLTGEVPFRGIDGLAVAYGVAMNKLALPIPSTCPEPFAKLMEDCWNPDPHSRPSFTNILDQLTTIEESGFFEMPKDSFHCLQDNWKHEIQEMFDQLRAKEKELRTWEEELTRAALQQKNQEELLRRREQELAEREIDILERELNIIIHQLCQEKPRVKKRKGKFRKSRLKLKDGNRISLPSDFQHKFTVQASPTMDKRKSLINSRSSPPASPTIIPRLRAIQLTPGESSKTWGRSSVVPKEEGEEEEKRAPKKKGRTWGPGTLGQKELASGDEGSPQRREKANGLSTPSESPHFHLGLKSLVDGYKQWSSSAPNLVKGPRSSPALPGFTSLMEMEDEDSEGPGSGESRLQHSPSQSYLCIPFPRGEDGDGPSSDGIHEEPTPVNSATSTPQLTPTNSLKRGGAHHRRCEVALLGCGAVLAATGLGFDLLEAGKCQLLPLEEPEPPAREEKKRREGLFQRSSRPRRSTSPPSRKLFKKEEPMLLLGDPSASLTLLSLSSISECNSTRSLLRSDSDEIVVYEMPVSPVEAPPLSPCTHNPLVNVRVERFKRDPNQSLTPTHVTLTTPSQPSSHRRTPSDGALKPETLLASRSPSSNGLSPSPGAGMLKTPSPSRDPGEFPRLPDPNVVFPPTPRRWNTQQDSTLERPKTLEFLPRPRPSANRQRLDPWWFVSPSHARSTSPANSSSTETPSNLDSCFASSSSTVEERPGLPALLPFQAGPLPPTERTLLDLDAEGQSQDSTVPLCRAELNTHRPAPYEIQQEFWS
kinases (KINOMEscan panel) (Homo sapiens, UniProt Q15746), sequence (Q15746 whole entry): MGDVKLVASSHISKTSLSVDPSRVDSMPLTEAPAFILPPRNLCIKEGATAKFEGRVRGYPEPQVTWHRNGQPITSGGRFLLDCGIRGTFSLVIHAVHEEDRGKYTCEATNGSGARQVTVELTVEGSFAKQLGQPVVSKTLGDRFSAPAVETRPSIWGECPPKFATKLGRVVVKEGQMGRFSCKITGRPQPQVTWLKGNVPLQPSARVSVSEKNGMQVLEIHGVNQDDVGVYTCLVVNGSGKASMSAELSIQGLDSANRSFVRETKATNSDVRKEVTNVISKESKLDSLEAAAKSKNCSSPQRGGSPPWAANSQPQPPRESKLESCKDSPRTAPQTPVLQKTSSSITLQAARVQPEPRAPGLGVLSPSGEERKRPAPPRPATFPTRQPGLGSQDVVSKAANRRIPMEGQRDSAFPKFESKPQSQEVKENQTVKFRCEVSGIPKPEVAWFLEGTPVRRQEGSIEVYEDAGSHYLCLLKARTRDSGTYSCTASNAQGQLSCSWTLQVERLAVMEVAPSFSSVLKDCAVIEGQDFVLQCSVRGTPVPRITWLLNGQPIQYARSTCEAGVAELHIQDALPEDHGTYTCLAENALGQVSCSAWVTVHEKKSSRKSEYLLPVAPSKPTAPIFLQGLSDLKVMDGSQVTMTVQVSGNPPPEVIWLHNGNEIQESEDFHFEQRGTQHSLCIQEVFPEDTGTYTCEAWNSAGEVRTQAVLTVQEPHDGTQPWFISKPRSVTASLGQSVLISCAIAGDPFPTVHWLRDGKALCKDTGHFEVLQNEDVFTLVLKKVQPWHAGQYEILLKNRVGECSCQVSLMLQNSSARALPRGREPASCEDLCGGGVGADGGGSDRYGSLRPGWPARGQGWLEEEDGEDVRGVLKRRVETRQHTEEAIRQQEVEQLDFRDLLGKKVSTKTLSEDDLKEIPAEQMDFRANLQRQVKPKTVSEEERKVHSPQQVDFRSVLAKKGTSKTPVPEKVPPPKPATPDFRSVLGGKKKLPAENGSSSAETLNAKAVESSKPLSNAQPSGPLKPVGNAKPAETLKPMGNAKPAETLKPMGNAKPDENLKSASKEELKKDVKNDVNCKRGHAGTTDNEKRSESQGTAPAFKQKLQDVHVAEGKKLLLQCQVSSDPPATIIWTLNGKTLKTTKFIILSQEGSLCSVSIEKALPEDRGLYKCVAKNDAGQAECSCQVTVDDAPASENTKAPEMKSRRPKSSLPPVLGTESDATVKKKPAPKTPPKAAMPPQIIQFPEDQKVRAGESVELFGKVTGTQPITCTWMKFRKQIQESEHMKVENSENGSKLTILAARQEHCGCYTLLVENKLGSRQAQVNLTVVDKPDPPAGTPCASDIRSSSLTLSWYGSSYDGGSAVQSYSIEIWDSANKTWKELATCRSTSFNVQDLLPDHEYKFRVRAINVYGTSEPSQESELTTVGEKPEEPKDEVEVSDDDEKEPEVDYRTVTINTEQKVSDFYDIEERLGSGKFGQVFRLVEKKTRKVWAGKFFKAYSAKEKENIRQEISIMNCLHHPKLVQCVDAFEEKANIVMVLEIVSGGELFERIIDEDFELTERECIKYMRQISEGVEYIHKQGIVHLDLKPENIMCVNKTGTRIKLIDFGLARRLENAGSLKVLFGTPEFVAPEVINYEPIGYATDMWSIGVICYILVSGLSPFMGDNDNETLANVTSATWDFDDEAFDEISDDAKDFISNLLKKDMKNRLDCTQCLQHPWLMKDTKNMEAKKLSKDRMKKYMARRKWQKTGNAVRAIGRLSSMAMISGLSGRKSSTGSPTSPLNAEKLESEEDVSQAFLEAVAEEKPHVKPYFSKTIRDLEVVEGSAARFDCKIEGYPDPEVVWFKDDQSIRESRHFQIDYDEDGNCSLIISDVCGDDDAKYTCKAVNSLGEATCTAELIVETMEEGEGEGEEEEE

`Cc1cccc(-c2nc(Nc3ccncc3)c3ccccc3n2)n1` [NK215]: in data set [1], the “KINOMEscan ERBB3” value is listed as 43. For the same molecule, the “KINOMEscan FLT4” value in data set [2] is 1. Also, the “KINOMEscan PRKCI” value in data set [3] is listed as 32. In data set [4], the “KINOMEscan NEK4” value was 0. For the same molecule, the “KINOMEscan MAP3K9” value in data set [5] was 11. In addition, the “KINOMEscan MYLK” value in data set [6] is 12. Moreover, the “KINOMEscan ANKK1” value in data set [7] is given as 0. The “KINOMEscan RIOK1” value in data set [8] is 0.
